Laboratory results as given in patent US8252752B2 (priority 2000, dated 2012).
Entries after “also recorded” stand apart in the source; their conditions may differ.

How the values were obtained:
MPTP-lesioned mice = type: in vivo, C57BL/6 mice
Method: Experimental mice were lesioned with MPTP (i.e., 40 mg/kg, ip twice, 1 month).
METHODS: Rota-Rod performance measures the length of time each animal manages to maintain its balance on the rotating lucite rod. Prior to MPTP-esioning animals, the performance was conditioned in three training sessions. The general training and testing procedure was as follows: namely,
Animals were placed on a stationary rod for 30 sec to accustom the behavior and establish familiarity with the environment. During this time if an animal fell, it was placed back on the rod; Next, animals were conditioned (or tested) at a constant speed of 5 rpm for 90 sec.;
Any animal that failed a first test was re-tested two more times; Any animal that failed a third test at 5 rpm was removed from the experiment; Thirty-minutes (30 min) after the last 5 rpm trial, each animal was placed back on the rod the speed was increased to 10 rpm; The length of time that each animal was able to maintain balance on the rod was measured at the constant speed of 10 rpm, i.e., data collection.

Nurr1 deficient mice = system: Nurr1 deficient mice
Method: Rota rod performance measurements were made on a weekly basis during an 8 week treatment period.
MATERIALS AND METHODS: RotaRod performance measurements (time that balance was maintained on the rod) were performed (as in Study #1), each week during 8 weeks of treatment.

[1] = system: Tyrosine hydroxylase (TH); settings: 20 mg/kg for two months vs NaCl
6-OHDA-lesioned rats = system: 6-OHDA-lesioned rats
From the text: The nigral dopamine depletion is induced by using unilateral injections of 6-OHDA directly into the nigrostriatal system (AP: −4.4 mm, ML: 1.1 mm, DV: 7.5 mm, AP: −4.0 mm, ML: 0.8 mm, DV: 7.8 mm).
METHODS for STUDY #2: The Rota-Count 8 unit is an eight channel rotational meter. The system utilizes a digital rotary encoder and each encoder is mounted in a small bowl with a cable attachment; thereby, rotations of rats are automatically recorded. 6-OHDA in 0.9% NaCl at a concentration of 0.2% (w/v)-8 μl injected into the nigrostriatum. To control for injection failures in the injections, only 6-OHDA-lesioned rats that rotated more than 5 cycles/min at 7 days post-injection were selected for experimental use.

human DAT = human DAT (Homo sapiens, UniProt Q01959)
Method: To obtain differing levels of DAT expression, cells were transiently transfected) with plasmids containing a DAT cDNA insert (hDAT), or alternatively, control irrelevant cDNA insert (Negative Control, NC). After 48-72 hrs. culture, dopamine transport was measured in the transiently transfected hDAT-cells by incubation for 5 hrs. in the presence of ^3H-labeled dopamine (Positive Control, PC).

human DAT, sequence (Q01959 whole entry): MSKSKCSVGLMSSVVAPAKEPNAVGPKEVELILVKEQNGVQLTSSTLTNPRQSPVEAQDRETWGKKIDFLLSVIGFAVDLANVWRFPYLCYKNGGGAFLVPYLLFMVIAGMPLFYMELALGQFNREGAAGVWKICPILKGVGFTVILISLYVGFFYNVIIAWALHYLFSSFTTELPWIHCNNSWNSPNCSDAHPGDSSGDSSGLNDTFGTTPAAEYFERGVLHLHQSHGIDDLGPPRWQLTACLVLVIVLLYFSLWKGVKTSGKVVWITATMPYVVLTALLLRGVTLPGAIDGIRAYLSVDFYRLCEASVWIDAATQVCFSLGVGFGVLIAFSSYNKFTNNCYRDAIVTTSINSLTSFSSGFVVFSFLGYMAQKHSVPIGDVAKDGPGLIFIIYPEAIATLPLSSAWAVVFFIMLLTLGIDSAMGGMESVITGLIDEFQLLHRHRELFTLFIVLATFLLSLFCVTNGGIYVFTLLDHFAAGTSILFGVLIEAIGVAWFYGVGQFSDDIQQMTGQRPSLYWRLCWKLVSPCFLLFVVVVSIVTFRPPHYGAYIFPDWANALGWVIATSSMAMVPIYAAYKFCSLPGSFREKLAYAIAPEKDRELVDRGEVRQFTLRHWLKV

Row | Compound | Rota-Rod performance times relative to NaCl-treated controls (MPTP-lesioned mice; mouse, in vivo) | onset of significant improvement in Rota-rod performance times (MPTP-lesioned mice; mouse, in vivo) | locomotor activity after two months of treatment (MPTP-lesioned mice; mouse, in vivo, ip, 20 mg/kg) | stability of Rota Rod performance during treatment (Nurr1 deficient mice; 20 mg/kg twice daily, 8 weeks) | improvement of Rota Rod performance relative to saline treated controls (Nurr1 deficient mice; 20 mg/kg twice daily, within two weeks of treatment) | Rota-Rod time compared with pretreatment performance times (Nurr1 deficient mice; 20 mg/kg, p<0.05) | time to return of Rota-Rod performance to pre-treatment values after cessation of treatment (Nurr1 deficient mice; after 8 weeks of treatment) [weeks] | Rota-Rod performance after cessation of treatment (washout) (Nurr1 deficient mice; after 8 weeks of treatment, p<0.05) | amount of TH per neuron [1] | increase in number of neurons staining positively for TH ([1]; not statistically significant, n=6) | apomorphine-induced rotation (6-OHDA-lesioned rats; 20 mg/kg, 4 weeks, p<0.05) | agonist effects (rotation triggered by the compound itself) (6-OHDA-lesioned rats; 80 mg/kg or 200 mg/kg) | competition of 3H-dopamine uptake (human DAT; hDAT-transfected cells, 5 hrs. incubation) | transportability at DAT (human DAT; summary of EXAMPLE 12) | reduction of Rota-Rod mean time (MPTP-lesioned mice; after lesioning, 40 mg/kg ip twice)
1 | Dopamine gluconamide [Compound #1] | 8-9 fold | about the third week of treatment; also recorded: about the second week | recovered locomotor activity | remained stable during the course of the 8-week treatment study | about 2 fold | significant increase of Rota-Rod time within two weeks of treatment | ≤ 2 | degraded significantly within one week | qualitatively much higher | 20-30% | significantly decreased apomorphine-induced rotation | did not trigger visible effects | Competition of ^3H-dopamine uptake was observed | transportable at DAT | 
2 | CN1CC=C(c2ccccc2)CC1 [MPTP, 1,2,3,6-methyl-phenyl-tetrahydropyridine, reference compound] |  |  |  |  |  |  |  |  |  |  |  |  |  |  | over 65%
